Experiments:
A-Raf kinase [1] = molecular target: T1, A-Raf kinase (Homo sapiens, UniProt P10398, Y301D/Y302D); assay: Biochemical assay for A-Raf.1 (coupled pyruvate kinase/lactate dehydrogenase); conditions: read-out: ARAF.1 IC50
T1 construct: purchased Sigma
How it was run: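 A-Raf (5.55 nM) phosphorylating 30.1 nM MEK with 1 mM ATP was monitored by pyruvate kinase/lactate dehydrogenase-coupled NADH oxidation at 340 nm for 6 h at 30° C, in pH 7.5 Tris buffer with 15 mM MgCl2, 1% DMSO. Rates from 4–5 h gave percent inhibition; IC50 by four-parameter fit.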

H2405 cells = assay: H2405 cell proliferation assay (1), resazurin, 96-well; type: cell-based; conditions: Homo sapiens, NCI-H2405, inhibition of cell proliferation
How it was run: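 This is a resazurin viability readout (excitation 540 nm, emission 600 nm) taken 5-6 h after adding 440 μM resazurin solution, giving IC50 values.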

Miapaca-2 cells = assay: MiaPaca-2 cell proliferation assay (1), resazurin, 96-well; type: cell-based; conditions: Homo sapiens, MIA PaCa-2, inhibition of cell proliferation
How it was run: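 Three thousand cells per well in DMEM with 10% FBS and 2.5% horse serum exposed to serially diluted compound in triplicate for 67-72 h at 37 °C, 5% CO2. Viability by resazurin (additional 5-6 h), fluorescence ex 540/em 600 nm; IC50 calculated.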

A-Raf kinase [2] = molecular target: T1, A-Raf kinase; assay: Biochemical assay for A-Raf.2 (coupled pyruvate kinase/lactate dehydrogenase); conditions: read-out: ARAF.2 IC50
Protocol: Biochemical Assay for A-Raf.2
Activity of A-Raf kinase (SEQ. ID No: 1) was determined spectroscopically using a coupled pyruvate kinase/lactate dehydrogenase assay that continuously monitors the ATP hydrolysis-dependent oxidation of NADH (e.g., Schindler et al., Science, 2000, 289, 1938-1942). Assays were conducted in 384-well plates (25 μL final volume) using 20 nM A-Raf (Eurofins), 1.5 units pyruvate kinase, 2.1 units lactate dehydrogenase, 1 mM phosphoenol pyruvate, 0.7 mM NADH, 100 nM MEK (SignalChem), and 1 mM ATP in assay buffer (100 mM Tris, pH 7.5, 15 mM MgCl2, 0.5 mM DTT, 0.1% octyl-glucoside, 0.002% (w/v) BSA, and 0.002% Triton X-100). Inhibition of A-Raf was measured by adding serial diluted test compound (final assay concentration of 1% DMSO). A decrease in absorption at 340 nm was monitored hourly for 4 h at 30° C. on a multi-mode microplate reader (BioTek). The reaction rate was calculated using the 3 to 4 h time frame. The reaction rate at each concentration of compound was converted to percent inhibition using controls (i.e., reaction with no test compound and reaction with a known inhibitor) and IC50 values were calculated by fitting a four-parameter sigmoidal curve to the data using Prism (GraphPad software).

T1 sequence (P10398 with tags, fused parts or gaps Y301D/Y302D): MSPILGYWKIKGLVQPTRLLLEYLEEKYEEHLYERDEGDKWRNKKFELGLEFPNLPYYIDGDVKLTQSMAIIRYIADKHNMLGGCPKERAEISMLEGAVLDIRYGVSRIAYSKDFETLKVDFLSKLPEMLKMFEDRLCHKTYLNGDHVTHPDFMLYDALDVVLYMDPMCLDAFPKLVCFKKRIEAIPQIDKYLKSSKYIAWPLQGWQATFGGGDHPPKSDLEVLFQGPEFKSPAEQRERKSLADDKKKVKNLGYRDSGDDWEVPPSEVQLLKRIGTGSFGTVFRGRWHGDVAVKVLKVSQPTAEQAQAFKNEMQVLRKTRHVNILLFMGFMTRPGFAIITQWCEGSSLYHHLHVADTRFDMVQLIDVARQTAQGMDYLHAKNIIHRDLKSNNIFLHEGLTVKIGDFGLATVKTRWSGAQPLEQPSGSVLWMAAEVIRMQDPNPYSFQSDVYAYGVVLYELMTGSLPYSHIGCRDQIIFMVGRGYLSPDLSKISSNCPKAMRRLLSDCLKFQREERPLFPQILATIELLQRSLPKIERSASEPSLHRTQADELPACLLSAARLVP

IC50 (A-Raf kinase [1]) [nM]	IC50 (H2405 cells) [nM]	IC50 (Miapaca-2 cells) [nM]	IC50 (A-Raf kinase [2]) [nM]	SMILES
> 1000	100 to 500	500 to 1000	–	COC(=O)Nc1cc(-c2cccc(-c3cc(NC(=O)NCCC(C)(C)OC)c(F)cc3C)c2)ccn1 [Example 85]
500 to 1000	100 to 500	1000 to 10000	–	Cc1cc(F)c(NC(=O)NCCC2(C)CC2)cc1-c1cc(OCCO)nc(-c2ccnc3[nH]ncc23)c1 [Example 87]
> 1000	1000 to 10000	1000 to 10000	–	Cc1cc(F)c(NC(=O)N[C@@H]2CC[C@H](F)C2)cc1-c1cc(OCCO)nc(-c2ccnc3[nH]ncc23)c1 [Example 88]
> 1000	1000 to 10000	1000 to 10000	–	Cc1cc(F)c(NC(=O)NCC[C@@H]2CCO2)cc1-c1cc(OCCO)nc(-c2ccnc3[nH]ncc23)c1 [Example 89]
> 1000	500 to 1000	1000 to 10000	–	COC(C)(C)CCNC(=O)Nc1cc(-c2cc(OCCO)nc(-c3ccnc4[nH]ccc34)c2)c(C)cc1F [Example 90]
> 1000	100 to 500	1000 to 10000	–	COC(C)(C)CCNC(=O)Nc1cc(-c2cc(OCCO)nc(-c3ccnc4[nH]ncc34)c2)c(C)cc1F [Example 91]
> 1000	1000 to 10000	1000 to 10000	–	Cc1cc(F)c(NC(=O)N2CCC(C)(C#N)CC2)cc1-c1cc(OCCO)nc(-c2ccnc3[nH]ncc23)c1 [Example 92]
–	–	–	> 1000	CNC(=O)c1cc(-c2cc(-c3cc(NC(=O)N4CC[C@H](C(F)(F)F)C4)ccc3C)ccn2)ccn1 [Example 215]
–	500 to 1000	1000 to 10000	> 1000	CNC(=O)c1cc(-c2cncc(-c3cc(NC(=O)N4CC[C@H](C(F)(F)F)C4)ccc3C)c2)ncn1 [Example 220]
–	100 to 500	–	100 to 500	COC(=O)Nc1cc(-c2cncc(-c3cc(NC(=O)N4CC[C@H](C(F)(F)F)C4)ccc3C)c2)ncn1 [Example 224]
–	100 to 500	–	> 1000	CNC(=O)c1cc(-c2cc(-c3cc(NC(=O)N4CC[C@H](C(C)C)C4)ccc3C)ccn2)ccn1 [Example 225]
–	500 to 1000	–	> 1000	CNC(=O)c1cc(-c2cncc(-c3cc(NC(=O)N4CC[C@H](C(C)C)C4)ccc3C)c2)ncn1 [Example 226]
–	–	–	≤ 100	Cc1ccc(NC(=O)N2CC[C@H](C)C2)cc1-c1cncc(-c2cc(NC(=O)C3CC3)ncn2)c1 [Example 227]
–	–	–	> 1000	CNC(=O)c1cc(-c2cncc(-c3cc(NC(=O)N4CC[C@H](C(F)(F)F)C4)ccc3C)c2)ccn1 [Example 228]
–	–	–	> 1000	CNC(=O)c1cc(-c2cncc(-c3cc(NC(=O)N4CC[C@H](C(C)C)C4)ccc3C)c2)ccn1 [Example 229]
